Reference: patent publication US11253524B2 (Gilead Sciences, Inc., priority 2018, dated 2022)

Test: Stability of synthetic M15 observed during purification
Assay type: physicochemical
Description: Anomeric bromination of 1 with 33% HBr in acetic acid gave bromide 2 in 70% crystallized yield. Treatment of phenol 3 with bromide 2 in the presence of Ag2CO3 in acetonitrile at 60° C. produced compound 4 in 75% yield after reverse phase chromatography. Deprotection of 4 with triethylamine in methanol/water gave clean conversion to glucuronic acid 5 (M15). The reaction was stopped at 90% conversion since the amount of 3 present in the reaction started to increase. The mixture was purified by reverse phase chromatography with 0.1% TFA in the chromatography solvent. The free acid was isolated after lyophilization, however it contained a significant amount of 3. […] Another batch was purified using the same method as before but the TFA was neutralized with triethylamine before lyophilization. The compound was stable to the conditions but contained a large amount of triethylammonium trifluoroacetate. Not all salt was removed. The material was purified by reverse phase chromatography but without TFA in the solvent. After lyophilization the triethylamine salt of M15 (5) was isolated in high purity and 24% overall yield.

With `O=C(NCc1c(F)cc(F)cc1F)c1cn2c(c(O[C@@H]3O[C@H](C(=O)O)[C@@H](O)[C@H](O)[C@H]3O)c1=O)C(=O)N1[C@H]3CC[C@H](C3)O[C@@H]1C2` [Metabolite M15] the “Stability of the free acid” value (free acid, neutral or acidic conditions) was “unstable in either neutral or acidic conditions” and the “Stability of the triethylamine salt” value (triethylamine salt) was “appeared to be stable”.
